Values of other authors in patent publication US20240390346A1, “COMPOSITIONS FOR A DIETARY SUPPLEMENT TO MANAGE SENESCENT CELLS” (Neurohacker Collective, LLC, priority 2023, published 2024).

Test system: senescent cells
Conditions: literature studies
In the case of O=c1c(O)c(-c2ccc(O)c(O)c2)oc2cc(O)ccc12 [Fisetin], the “senolytic / senomorphic activity” value is listed as “both senolytic and senomorphic activity”.
For O=c1cc(-c2ccc(O)c(O)c2)oc2cc(O)cc(O)c12 [Luteolin], the “senolytic / senomorphic activity” value is given as “senolytic activity”.
For COc1cc(/C=C/C(=O)N2CCC=CC2=O)cc(OC)c1OC [Piperlongumine], the “senolytic / senomorphic activity” value is listed as “senolytic activity”.
In the case of O=c1c(O)c(-c2ccc(O)c(O)c2)oc2cc(O)cc(O)c12 [quercetin], the “senolytic / senomorphic activity” value is given as “both senolytic and senomorphic”.
